For 23 compounds, IC50 results are on record in US20260174778A1, “SULFONAMIDE COMPOUND, AND PREPARATION METHOD THEREFOR AND USE THEREOF” (SHANGHAI HENLIUS BIOTECH, INC., priority 2023, published 2026).

In this experiment the test system is breast cancer cell line ZR-75-1. The experiment can be described thus: Inhibition of proliferation of breast cancer cell line ZR-75-1 (CellTiter-Glo). The format is cell-based. The conditions noted are these: Homo sapiens, 240 h, proliferation of ZR-75-1 cells, 10 days of incubation, read-out: IC50 (KAT6A). The source says: Test Example 1: Experiment for Determining Inhibitory Effects of Compounds on Proliferation of Breast Cancer Cell Line ZR-75-1
ATP is an indicator of the metabolism of living cells. The CellTiter-Glo® Luminescent Cell Viability Assay is a homogeneous assay method for determining the number of viable cells by quantifying ATP.
• 1) ZR-75-1 (Cell Bank of Chinese Academy of Sciences, TCHul26) • 2) RPMI-1640 medium (Gibco, 11875-093) • 3) Fetal Bovine Serum, New Zealand (Gibco,10091-148) • 4) Penicillin-streptomycin (10,000 U/mL) (Gibco, 15140-122) • 5) Trypsin-EDTA (0.25%), containing phenol red (Gibco, 25200-072) • 6) DPBS (Shanghai BasalMedia, B210KJ) • 7) Corning® 96-well Clear Flat Bottom Ultra-Low Attachment Microplate (Corning, Cat. No. 3474) • 8) 330 μL 96 Holes Deep Well Plate, transparents, 96 Round Holes, V-shaped Bottom, Low Retention (Stellar Scientific, DP33VR-9-NS) • 9) Corning® 96-well solid white flat-bottom polystyrene microplate (Corning, Cat. No. 3917) • 10) CellTiter-Glo® Luminescent Cell Viability Assay (Promega, G7573) • 11) Countstar® BioMed automatic cell counter • 12) Trypan blue solution, 0.4% (Gibco, Cat. No. 15250061) • 13) 37° C. constant-temperature incubator (Thermo, FORMA STERI-CYCLE i160 LK) • 14) Biosafety cabinet (Thermo, 1379)
• 1) The formula of the complete medium for ZR-75-1 was as follows: 500 mL RPMI-1640+10% FBS+1% penicillin-streptomycin. • 2) Thirty minutes before cell plating, the complete medium, serum, trypsin, and DPBS for use in ZR-75-1 cell culture were pre-warmed in a water bath at 37° C. • 3) The ZR-75-1 cells were taken out of the incubator, and the medium was removed by pipetting. The cells were rinsed once with 5 mL of DPBS, and then the DPBS was discarded. • 4) The cells in the T75 culture flask were digested with 1-3 mL of (0.25%) trypsin-EDTA. After the trypsin was added, the culture flask was incubated in an incubator at 37° C. for 2-5 min, and dispersion was confirmed by microscopic examination. Tapping or agitating the culture flask was avoided to prevent disturbing the cells, which might cause cell clumping. • 5) 9 mL of the complete medium was added to terminate the digestion, thus forming a cell suspension, which was then mixed well by pipetting. • 6) Cell suspension counting: 20 μL of the cell suspension was pipetted and diluted with 20 µL of the 0.4% trypan blue solution (Gibco, Cat. No. 15250061). The total cell count and the percentage of cell viability were determined using the Countstar® BioMed automatic cell counter. Only cells with a cell viability of no less than 95% were used for the experiment. • 7) The concentration of the cell suspension was adjusted to 2000 cells/well, and the cell suspension was added to a 96-well cell culture plate at 80 μL/well. Treatment of Cells with Compounds • 1) Twenty-four hours after cell plating, the cell plate was taken out. • 2) Each compound was prepared with a complete medium. The stock solution was a 10 mM solution in DMSO, which was first diluted with the medium to 100 μM, then diluted to 1 μM, and finally subjected to a 5-fold serial dilution across a total of 9 concentration gradients. • 3) 20 μL of the compound diluted with the medium was added to each well of the cell culture plate, which already contained 80 μL of the medium. The final concentration started at 200 nM, followed by a 5-fold serial dilution across a total of 9 concentration gradients. Two replicate wells were set for each compound, and each plate could be used to test 3 compounds, with the DMSO content controlled within 0.5%. • 4) The culture medium was replenished once every three days with a complete medium containing the same concentration of the test compound, with 20 μL/well added each time.
After 10 days of incubation with the compound, the cell culture plate was taken out, and the CellTiter-Glo® reagent was added at 50 μL/well. […]

Regarding `COc1cc(Cn2cccn2)cc2onc(NS(=O)(=O)c3cccc4c3OCO4)c12` [Compound 4, N-(6-((1H-Pyrazol-1-yl)methyl)-4-methoxybenzo[d]isoxazol-3-yl)benzo[d][1,3]dioxole-4-sulfonamide], the IC50 lay in the range of 10 to 50 nM.

With `COc1ccc2c(c1S(=O)(=O)Nc1noc3cc(Cn4cccn4)cc(OC)c13)OCCC2O` (centres unmarked) [Compound 36, N-(6-((1H-Pyrazol-1-yl)methyl)-4-methoxybenzo[d]isoxazol-3-yl)-4-hydroxy-7-methoxychromane-8-sulfonamide], the IC50 is below 0.5 nM. For `COc1ccc2c(c1S(=O)(=O)Nc1noc3cc(Cn4cccn4)c(F)c(Cl)c13)OCCC21CC1` [Compound 49, N-(6-((1H-Pyrazol-1-yl)methyl)-4-chloro-5-fluorobenzo[d]isoxazol-3-yl)-7-methoxyspiro[chromane-4,1′-cyclopropane]-8-sulfonamide], the IC50 lay within 2 to 10 nM. As for `COc1ccc2c(c1S(=O)(=O)Nc1noc3cc(Cn4cccn4)c(F)c(OC)c13)OCCC2O` (centres unmarked) [Compound 107, N-(6-((1H-Pyrazol-1-yl)methyl)-5-fluoro-4-methoxybenzo[d]isoxazol-3-yl)-4-hydroxy-7-methoxychromane-8-sulfonamide], the IC50 was 0.5 to 2 nM.

As to `COc1c(F)c(Cn2cccn2)cc2onc(NS(=O)(=O)c3cc(C(C)(C)C)ccc3OC3CCC3)c12` [Compound 7, N-(6-((1H-Pyrazol-1-yl)methyl)-5-fluoro-4-methoxybenzo[d]isoxazol-3-yl)-5-(tert-butyl)-2-cyclobutoxybenzenesulfonamide], the IC50 was 0.5 to 2 nM. For the compound `COc1ccc2c(c1S(=O)(=O)Nc1noc3cc(Cn4cccn4)c(F)c(Cl)c13)OCCO2` [Compound 32, N-(6-((1H-Pyrazol-1-yl)methyl)-4-chloro-5-fluorobenzo[d]isoxazol-3-yl)-6-methoxy-2,3-dihydrobenzo[b][1,4]dioxine-5-sulfonamide], the IC50 is 2 to 10 nM.

Turning to `COc1ccc2c(c1S(=O)(=O)Nc1noc3cc(Cn4cccn4)cc(OC)c13)OCCC2(C)C` [Compound 16, N-(6-((1H-Pyrazol-1-yl)methyl)-4-methoxybenzo[d]isoxazol-3-yl)-7-methoxy-4,4-dimethylchromane-8-sulfonamide], the IC50 was below 0.5 nM.

Turning to `COc1ccc2c(c1S(=O)(=O)Nc1noc3cc(Cn4cccn4)cc(OC)c13)OCCC21CC1` [Compound 35, N-(6-((1H-Pyrazol-1-yl)methyl)-4-methoxybenzo[d]isoxazol-3-yl)-7-methoxyspiro[chromane-4,1′-cyclopropane]-8-sulfonamide], the half-maximal inhibitory concentration (IC50) is below 0.5 nM. For `COc1ccc2c(c1S(=O)(=O)Nc1noc3cc(Cn4cccn4)cc(Cl)c13)OCCC2=O` [Compound 45, N-(6-((1H-Pyrazol-1-yl)methyl)-4-chlorobenzo[d]isoxazol-3-yl)-7-methoxy-4-oxochromane-8-sulfonamide], the IC50 lay in the range of 2 to 10 nM.

`COc1ccc2c(c1S(=O)(=O)Nc1noc3cc(Cn4cccn4)cc(OC)c13)OCCC2(F)F` [Compound 102, N-(6-((1H-Pyrazol-1-yl)methyl)-4-methoxybenzo[d]isoxazol-3-yl)-4,4-difluoro-7-methoxychromane-8-sulfonamide]: the IC50 fell in the range of 0.5 to 2 nM.

For the compound `COc1ccc(C(C)(C)O)cc1S(=O)(=O)Nc1noc2cc(Cn3cccn3)cc(OC)c12` [Compound 13, N-(6-((1H-Pyrazol-1-yl)methyl)-4-methoxybenzo[d]isoxazol-3-yl)-5-(2-hydroxypropan-2-yl)-2-methoxybenzenesulfonamide], the IC50 was 0.5 to 2 nM. As for `COc1ccc2c(c1S(=O)(=O)Nc1noc3cc(Cn4cccn4)cc(Cl)c13)OCCC2(C)C` [Compound 33, N-(6-((1H-Pyrazol-1-yl)methyl)-4-chlorobenzo[d]isoxazol-3-yl)-7-methoxy-4,4-dimethylchromane-8-sulfonamide], the IC50 was in the range of 0.5 to 2 nM. Regarding `COc1ccc2c(c1S(=O)(=O)Nc1noc3cc(Cn4cccn4)cc(OC)c13)OCCC2(C)O` (centres unmarked) [Compound 38, N-(6-((1H-Pyrazol-1-yl)methyl)-4-methoxybenzo[d]isoxazol-3-yl)-4-hydroxy-7-methoxy-4-methylchromane-8-sulfonamide], the half-inhibitory concentration (IC50) was below 0.5 nM. Take `COc1cccc(OC)c1S(=O)(=O)Nc1nsc2cc(Cn3cccn3)cc(OC)c12` [Compound 24, N-(6-((1H-Pyrazol-1-yl)methyl)-4-methoxybenzo[d]isothiazol-3-yl)-2,6-dimethoxybenzenesulfonamide]: the IC50 was in the range of 10 to 50 nM. For `COc1ccc2c(c1S(=O)(=O)Nc1noc3cc(Cn4cccn4)c(F)c(Cl)c13)OCCC2=O` [Compound 48, N-(6-((1H-Pyrazol-1-yl)methyl)-4-chloro-5-fluorobenzo[d]isoxazol-3-yl)-7-methoxy-4-oxochromane-8-sulfonamide], the half-maximal inhibitory concentration (IC50) was 0.5 to 2 nM. The same measure for `COc1ccc2c(c1S(=O)(=O)Nc1noc3cc(Cn4cccn4)c(Cl)c(OC)c13)OCCC21CC1` [Compound 52, N-(6-((1H-Pyrazol-1-yl)methyl)-5-chloro-4-methoxybenzo[d]isoxazol-3-yl)-7-methoxyspiro[chromane-4,1′-cyclopropane]-8-sulfonamide]: at least 50 nM; for `COc1ccc2c(c1S(=O)(=O)Nc1noc3cc(Cn4cccn4)cc(OC)c13)OCCC2=O` [Compound 37, N-(6-((1H-Pyrazol-1-yl)methyl)-4-methoxybenzo[d]isoxazol-3-yl)-7-methoxy-4-oxochromane-8-sulfonamide]: below 0.5 nM; for `CCc1ccc(OC2CCC2)c(S(=O)(=O)Nc2noc3cc(Cn4cccn4)cc(OC)c23)c1` [Compound 22, N-(6-((1H-Pyrazol-1-yl)methyl)-4-methoxybenzo[d]isoxazol-3-yl)-2-cyclobutoxy-5-ethylbenzenesulfonamide]: 2 to 10 nM. For `COc1c(F)c(Cn2cccn2)cc2onc(NS(=O)(=O)c3ccccc3OC3CCC3)c12` [Compound 108, N-(6-((1H-Pyrazol-1-yl)methyl)-5-fluoro-4-methoxybenzo[d]isoxazol-3-yl)-2-cyclobutoxybenzenesulfonamide], the IC50 lay within 0.5 to 2 nM. In the case of `COc1cccc(OC2CCC2)c1S(=O)(=O)Nc1noc2cc(Cn3cccn3)cc(OC)c12` [Compound 21, N-(6-((1H-Pyrazol-1-yl)methyl)-4-methoxybenzo[d]isoxazol-3-yl)-2-cyclobutoxy-6-methoxybenzenesulfonamide], the IC50 fell in the range of 2 to 10 nM. Regarding `COc1cccc(OC)c1S(=O)(=O)Nc1nnc2cc(Cn3cccn3)cc(OC)n12` [Compound 58, N-(7-((1H-Pyrazol-1-yl)methyl)-5-methoxy-[1,2,4]triazolo[4,3-a]pyridin-3-yl)-2,6-dimethoxybenzenesulfonamide], the IC50 is at least 50 nM.

As to `COc1ccc2c(c1S(=O)(=O)Nc1noc3cc(Cn4cccn4)cc(OC)c13)OC(C)(C)C2` [Compound 19, N-(6-((1H-Pyrazol-1-yl)methyl)-4-methoxybenzo[d]isoxazol-3-yl)-6-methoxy-2,2-dimethyl-2,3-dihydrobenzofuran-7-sulfonamide], the IC50 was 2 to 10 nM. For `COc1ccc2c(c1S(=O)(=O)Nc1noc3cc(Cn4cccn4)c(Cl)c(OC)c13)OCCC2(C)C` [Compound 29, N-(6-((1H-Pyrazol-1-yl)methyl)-5-chloro-4-methoxybenzo[d]isoxazol-3-yl)-7-methoxy-4,4-dimethylchromane-8-sulfonamide], the IC50 was 10 to 50 nM.

As usually defined, the IC50 is the concentration needed to halve the response being measured.
